Results reported in US7713969B2, “Compositions and methods for treatment of cancer” (ArQule, Inc., priority 2005, dated 2010).

How the values were obtained:
[1] = system: HT29; assay: Cell viability MTS assay; format: cell-based, human
Method: (§1) Cell viability was determined by measuring the activity of dehydrogenase enzymes in metabolically active cells using a tetrazolium compound, MTS. The assay was performed as described in Promega Technical Bulletin No. 169 (CellTiter 96 Aqueous Non-Radioactive Cell Proliferation Assay). Thirteen human cancer cell lines were assayed (see, e.g., Table 1). Cells were maintained at 37° C., 5% CO2. Adherent cells were maintained DMEM media (4.5 g/L glucose) supplemented with 15% heat-inactivated FBS, 10 mM L-glutamine, and 10 mM Hepes pH 7.5. Suspension cells were maintained in RPMI 1640 media, supplemented with 10% heat-inactivated FBS and 10 mM Hepes pH 7.5. Briefly, cells were seeded in 96-well plates as set forth in Table 1 and incubated for 16-24 hours. Candidate compounds were serially diluted in DMSO, further diluted in cell culture media, and then added to cells (final DMSO concentration of 0.33%). Cells were incubated in the presence of candidate compound for 72 hours. MTS stock solution (MTS 2 gm/L, PMS […] in PBS) was added to the cells (final concentration MTS […] and PMS 7.67 mg/L) and incubated for 4 hours. SDS was added to a final concentration of 1.4% and absorbance at 490 nm was measured within two hours using a platereader. The IC50 was defined as the concentration of compound that results in a 50% reduction in the number of viable cells as compwered to control wells treated with DMSO only (0.33%) and was calculated using non-linear regression analyswas. IC50 values were given in Table 2 for the compounds listed.

[2] = system: MDA-MB-231; assay: Cell viability MTS assay; format: cell-based, human
Method: as §1

[3] = Homo sapiens, HT-29, 72 hours with compound
[4] = Homo sapiens, MDA-MB-231, 72 hours with compound

Row | Compound | IC50 ([1]; 72 hours with compound) | IC50 ([2]; 72 hours with compound) | IC50 [1, 3] | IC50 [2, 4]
1 | 3-(4-Benzoyloxyphenyl)-4-(5,6-dihydro-4H-pyrrolo[3,2,1-ij]quinolin-1-yl)-pyrrole-2,5-dione [Example 29] | > 100 µM | > 100 µM |  | 
2 | 3-(5,6-dihydro-4H-pyrrolo[3,2,1-ij]quinolin-1-yl)-4-(4-fluorophenyl)-1H-pyrrole-2,5-dione [Example 67] | 53.1 µM |  |  | 
3 | O=C1[C@@H](c2c[nH]c3ccccc23)[C@H](c2cn3c4c(cccc24)CCC3)C(=O)N1COP(=O)(O)O (racemic) [(±)-Phosphoric acid mono-[trans-3-(5,6-dihydro-4H-pyrrolo[3,2,1-ij]quinolin-1-yl)-4-(1H-indol-3-yl)-2,5-dioxo-pyrrolidin-1-ylmethyl]ester] |  |  | 4.45 µM | 5.89 µM
4 | O=C1NC(=O)[C@@H](c2cn3c4c(cccc24)CCC3)[C@@H]1c1c[nH]c2ccc(-c3cccc4ccccc34)cc12 (racemic) [Example 37, (±)-Trans-3-(5,6-dihydro-4H-pyrrolo[3,2,1-ij]quinolin-1yl)-4-(5-(1-naphthyl)-1H-indol-3-yl)pyrrolidine-2,5-dione] |  |  | 37.4 µM | 43.4 µM
5 | COc1ccc(-c2ccc3[nH]cc([C@@H]4C(=O)NC(=O)[C@H]4c4cn5c6c(cccc46)CCC5)c3c2)cc1 (racemic) [Example 38, (±)-Trans-3-(5,6-dihydro-4H-pyrrolo[3,2,1-ij]quinolin-1yl)-4-(5-(4-methoxyphenyl)-1H-indol-3-yl)pyrrolidine-2,5-dione] |  |  | 10.6 µM | 13.1 µM
6 | Cc1cccc(-c2ccc3[nH]cc([C@@H]4C(=O)NC(=O)[C@H]4c4cn5c6c(cccc46)CCC5)c3c2)c1 (racemic) [Example 39, (±)-Trans-3-(5,6-dihydro-4H-pyrrolo[3,2,1-ij]quinolin-1yl)-4-(5-(3-methylphenyl)-1H-indol-3-yl)pyrrolidine-2,5-dione] |  |  | 10.5 µM | 
7 | O=C1NC(=O)[C@@H](c2cn3c4c(cccc24)CCC3)[C@@H]1c1ccc(F)cc1Cl (racemic) [Example 40, (±)-Trans-3-(5,6-dihydro-4H-pyrrolo[3,2,1-ij]quinolin-1yl)-4-(2-chloro-4-fluorophenyl)pyrrolidine-2,5-dione] |  |  | 10.5 µM | 
8 | O=C1NC(=O)[C@@H](c2cn3c4c(cccc24)CCC3)[C@@H]1c1c(Cl)cccc1Cl (racemic) [Example 41, (±)-Trans-3-(5,6-dihydro-4H-pyrrolo[3,2,1-ij]quinolin-1yl)-4-(2,6-dichlorophenyl)pyrrolidine-2,5-dione] |  |  | 4.65 µM | 7.63 µM
9 | O=C1NC(=O)[C@@H](c2cn3c4c(cccc24)CCC3)[C@@H]1c1ccc(Br)cc1 (racemic) [Example 42, (±)-Trans-3-(5,6-dihydro-4H-pyrrolo[3,2,1-ij]quinolin-1yl)-4-(4-bromophenyl)pyrrolidine-2,5-dione] |  |  | 44.1 µM | 49.6 µM
10 | O=C1NC(=O)[C@@H](c2cn3c4c(cccc24)CCC3)[C@@H]1c1ccccc1 (racemic) [Example 49, (±)-Trans-3-(5,6-dihydro-4H-pyrrolo[3,2,1-ij]quinolin-1yl)-4-phenyl-pyrrolidine-2,5-dione] |  |  | 14.6 µM | 
11 | O=C1NC(=O)[C@@H](c2cn3c4c(cccc24)CCC3)[C@@H]1c1ccc(F)cc1 (racemic) [Example 70, (±)-Trans-3-(5,6-dihydro-4H-pyrrolo[3,2,1-ij]quinolin-1-yl)-4-(4-fluorophenyl)pyrrolidine-2,5-dione] |  |  |  | 49.2 µM
12 | O=C1NC(=O)C(c2cn3c4c(cccc24)CCC3)=C1c1ccc(F)cc1 [Example 67, 3-(5,6-dihydro-4H-pyrrolo[3,2,1-ij]quinolin-1-yl)-4-(4-fluorophenyl)-1H-pyrrole-2,5-dione] |  |  |  | 57 µM
13 | (±)-Trans-3-(5,6-dihydro-4H-pyrrolo[3,2,1-ij]quinolin-1-yl)-4-(4-fluorophenyl)pyrrolidine-2,5-dione [Example 70] | 26.2 µM |  |  | 
